According to US10364256B2 (GlaxoSmithKline Intellectual Property Development Limited, priority 2015, dated 2019):
Counter-ions that a name gives are not always drawn. Like-named read-outs stand apart in the source and are kept apart here.

Experiments:
[1] = system: NQO1 specific enzyme activity in BEAS-2B cells (marker for NRF2 activation); assay: BEAS-2B NQO1 MTT Assay; format: cell-based; conditions: Homo sapiens, compound incubated 48 hours, read-out: EC50 (NQO1 specific enzyme activity induction)
Method in brief: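 BEAS-2B cells treated with compound for 48 h at 37 °C, then lysed; NQO1 activity in lysates measured kinetically by MTT reduction at A570 over 30 min. pEC50 from 3-parameter fit of ΔOD/min versus log concentration; lysate also taken for Cell Titer Glo.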

[2] = biological target: T1, Keap1 Kelch domain (321-609) / TAMRA-labeled 16mer NRF2 peptide (ETGE motif) (Homo sapiens, UniProt Q14145); assay: NRF2-Keap1 FP Assay (Keap1 Kelch fluorescence polarization); format: binding; conditions: 20 nM Keap1 (321-609), 8 nM Tamra labeled peptide
T1 construct: the Kelch domain (321-609) of Keap1 is used
T1 sequence (Q14145 321-609): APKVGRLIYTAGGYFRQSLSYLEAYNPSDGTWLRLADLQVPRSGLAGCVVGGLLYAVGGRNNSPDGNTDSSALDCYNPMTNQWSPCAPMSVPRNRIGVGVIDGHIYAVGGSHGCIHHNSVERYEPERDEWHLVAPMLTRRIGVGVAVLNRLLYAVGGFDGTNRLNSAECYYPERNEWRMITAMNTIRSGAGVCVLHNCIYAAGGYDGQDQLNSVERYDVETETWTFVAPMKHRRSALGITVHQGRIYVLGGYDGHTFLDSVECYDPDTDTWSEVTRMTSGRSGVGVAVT
Method in brief: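 Compound dilutions (3-fold) were incubated 1 hr at room temperature with 20 nM Keap1 Kelch (321-609) and 8 nM TAMRA-labeled ETGE 16mer peptide. Buffer was 50 mM Tris pH 8.0, 100 mM NaCl, 5 mM MgCl2, 1 mM DTT, 2 mM CHAPS, 0.005% BSA. Fluorescence polarization (mP) was normalized to controls and fitted with a four-parameter equation to give pIC50.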

[3] = biological target: T2, full length Keap1 protein / full length NRF2 protein (Homo sapiens, UniProt Q14145); assay: NRF2-Keap1 TR-FRET Assay; format: binding; conditions: 25 nM Keap1-FlagHis and 50 nM biotin-NRF2 added
T2 construct: full length NRF2 protein and full length Keap1 protein (Keap1 exists a dimer) are used; His
T2 sequence (Q14145 whole entry): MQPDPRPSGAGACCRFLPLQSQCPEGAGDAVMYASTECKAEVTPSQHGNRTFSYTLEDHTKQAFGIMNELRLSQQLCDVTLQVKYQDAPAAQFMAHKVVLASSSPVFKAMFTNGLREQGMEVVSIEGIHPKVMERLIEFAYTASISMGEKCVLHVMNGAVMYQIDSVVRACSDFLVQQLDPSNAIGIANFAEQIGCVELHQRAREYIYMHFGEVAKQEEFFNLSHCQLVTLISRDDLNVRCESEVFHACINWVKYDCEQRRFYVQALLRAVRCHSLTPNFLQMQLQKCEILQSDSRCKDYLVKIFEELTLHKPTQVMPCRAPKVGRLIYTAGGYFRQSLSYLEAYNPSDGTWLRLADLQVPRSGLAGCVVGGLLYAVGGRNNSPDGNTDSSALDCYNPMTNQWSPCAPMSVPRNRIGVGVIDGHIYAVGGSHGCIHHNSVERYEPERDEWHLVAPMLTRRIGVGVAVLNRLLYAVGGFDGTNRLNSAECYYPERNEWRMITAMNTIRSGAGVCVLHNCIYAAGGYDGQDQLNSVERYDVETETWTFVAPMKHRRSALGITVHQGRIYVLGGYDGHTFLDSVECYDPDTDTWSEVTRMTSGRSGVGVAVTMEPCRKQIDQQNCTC
Source text: In the NRF2-Keap1 TR-FRET (time-resolved fluorescence resonance energy transfer) assay, full length NRF2 protein and full length Keap1 protein (Keap1 exists a dimer) are used. The assay detects the ability of compound to displace the binding of FlagHis-tagged Keap1 with biotinylated, Avi-tagged NRF2 protein. Biotin-NRF2 binds to streptavidin-europium (a component of the detection mix) and Keap1-FlagHis is recognized by anti-Flag APC (allophycocyanin) antibody (also a component of the detection mix). If binding occurs between the two proteins, there will be an energy transfer from the Eu+3 (donor) at 615 nm to the APC (acceptor) at 665 nm. A potential Keap1 inhibitor will cause a reduction in the TR-FRET signal by interfering with the binding of Keap1 to NRF2.
One hundred nanoliters of 100× compound dose response curves (serial 3-fold dilutions) in DMSO are stamped using an Echo liquid handling system (Labcyte) into 384-well, low volume, black assay plates (Greiner, #784076), with DMSO in columns 6 and 18. The top concentration of compound is located in columns 1 and 13. All reagents are diluted in assay buffer (50 mM Tris, pH 8.0, 5 mM MgCl2, 100 mM NaCl, 0.005% BSA, 1 mM DTT, and 2 mM CHAPS). The BSA, DTT, and CHAPS are added to the assay buffer on the day of assay. Using a Multidrop Combi (Thermo Electron Corporation) equipped with a metal tip dispenser, 5 ul of 25 nM Keap1-FlagHis protein is added to all wells of the compound plate, with the exception of the wells in column 18. Wells in column 18 receive 5 ul of assay buffer instead. Plates are centrifuged at 500 rpm for 1 minute, covered with a plate lid, and incubated at 37° C. for 2.25 hours. Plates are then removed from the incubator and allowed to cool to RT for 15 minutes. Five microliters of 50 nM biotin-NRF2 protein is then added to all wells of the plates and the plates are spun at 500 rpm for 1 minute, followed by incubating at 4° C. for 1.25 hours. The plates are then allowed to warm to RT for 15 minutes, followed by the addition of 10 ul of detection mix (1 nM Streptavidin Eu+ W1024 and 5 ug/ml mouse anti-DYKDDDDK IgG conjugated to SureLight APC antibody; both from Columbia Biosciences) to all wells. Plates are spun at 500 rpm for 1 minute, incubated for 1 hour at RT, and read on an Envision plate reader using a 320 nm excitation filter and 615 nm and 665 nm emission filters. Compound response (% inhibition) and potency (pIC50) are calculated based on the ratio of the two emissions (665 nm/615 nm) and then the transformed data is normalized against controls in the assay (control 1=1% DMSO in the presence of NRF2 and Keap1 protein and control 2=1% DMSO in the absence of protein). Data analysis is handled using the software package Abase XE (Surrey, United Kingdom). The % inhibition values are calculated from the ratio (transformed) data by the equation: 100−(100*(compound response−average control 2)/(average control 1−average control2)). For calculation of pIC50s, Abase XE uses a four parameter equation. pIC50 is the negative log of the IC50.

[4] = biological target: T2, full length Keap1 protein / full length NRF2 protein; assay: NRF2-Keap1 TR-FRET Low Protein Assay; format: binding; conditions: 1.25 nM Keap1 FlagHis and 2.5 nM biotin-NRF2 added
Method in brief: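 Flag-tagged full-length Keap1 was preincubated with compound (3-fold series) for 2.25 h at 37 °C in Tris pH 8.0/MgCl2/NaCl/BSA/DTT/CHAPS. Biotin-Avi-NRF2 (added at 2.5 nM) was then bound for 1.25 h at 4 °C. Eu-streptavidin/anti-Flag-APC TR-FRET (665/615 nm) was read after 1 h at RT, and pIC50 came from a four-parameter fit.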

| IC50 [2] [µM] | IC50 [3] [µM] | IC50 [4] [µM] | Compound | EC50 [1] [µM] | EC50 ([1]; BEAS-2B, 48 h) [µM] |
| --- | --- | --- | --- | --- | --- |
| 0.1 to 1 | 1 to 10 | – | O=C(O)c1cnn(-c2cccc(-c3cccc(C(=O)N4CCCCC45CC5)c3F)c2)c1C1CC1 [Example 19, 1-[3-(3-{4-Azaspiro[2.5]octane-4-carbonyl}-2-fluorophenyl)phenyl]-5-cyclopropyl-1H-pyrazole-4-carboxylic Acid] | 1 to 10 | – |
| 0.01 to 0.1 | 0.01 to 0.1 | – | CCC[C@@H]1CCCCN1C(=O)c1cccc(-c2cccc(-n3ncc(C(=O)O)c3C3CC3c3cnoc3C)c2)c1 (stereo partly drawn) [Example 159, 5-(2-(5-Methylisoxazol-4-yl)cyclopropyl)-1-(3′-((R)-2-propylpiperidine-1-carbonyl)-[1,1′-biphenyl]-3-yl)-1H-pyrazole-4-carboxylic Acid] | – | 0.1 to 1 |
| 0.01 to 0.1 | 0.01 to 0.1 | – | CN(CC1CC1)C(=O)c1cccc(-c2cccc(-n3ncc(C(=O)O)c3[C@@H]3C[C@H]3c3cn(C)nn3)c2)c1F (racemic) [Example 265] | 1 to 10 | – |
| 1 to 10 | 10 to 100 | – | CC(Oc1cccc(-c2cccc(-n3ncc(C(=O)O)c3C3CC3)c2)c1)C1CCCCC1 (stereo not drawn) [Example 60, 1-(3′-(1-Cyclohexylethoxy)-[1,1′-biphenyl]-3-yl)-5-cyclopropyl-1H-pyrazole-4-carboxylic Acid] | 1 to 10 | – |
| 0.1 to 1 | 1 to 10 | – | CC(C)CN(C)C(=O)c1cccc(-c2cccc(-n3ncc(C(=O)O)c3C3CC3)c2)c1F [Example 4, 5-Cyclopropyl-1-(3-{2-fluoro-3-[methyl(2-methylpropyl)carbamoyl]phenyl}phenyl)-1H-pyrazole-4-carboxylic Acid] | 1 to 10 | – |
| 0.01 to 0.1 | 0.1 to 1 | – | CC(COc1cccc(-c2cccc(-n3ncc(C(=O)O)c3C3CC3c3cn(C)nn3)c2)c1)C1CCCCC1 (stereo not drawn) [Example 173, 1-(3′-(2-Cyclohexylpropoxy)-[1,1′-biphenyl]-3-yl)-5-(2-(1-methyl-1H-1,2,3-triazol-4-yl)cyclopropyl)-1H-pyrazole-4-carboxylic acid] | 0.01 to 0.1 | – |
| 0.01 to 0.1 | 0.1 to 1 | – | CC1(C)CCCN(C(=O)c2cccc(-c3cccc(-n4ncc(C(=O)O)c4C4CC4)c3)c2F)C1 [Example 6, 5-Cyclopropyl-1-{3-[3-(3,3-dimethylpiperidine-1-carbonyl)-2-fluorophenyl]phenyl}-1H-pyrazole-4-carboxylic Acid] | 1 to 10 | – |
| 0.01 to 0.1 | 1 to 10 | – | O=C(O)c1cnn(-c2cccc(-c3cccc(C(=O)N4CCCCCC4)c3F)c2)c1C1CC1 [Example 7, 1-{3-[3-(azepane-1-carbonyl)-2-fluorophenyl]phenyl}-5-cyclopropyl-1H-pyrazole-4-carboxylic Acid] | 1 to 10 | – |
| 0.01 to 0.1 | 0.1 to 1 | – | CN(CC1CCCC1)C(=O)c1cccc(-c2cccc(-n3ncc(C(=O)O)c3C3CC3)c2)c1F [Example 12, 1-(3-{3-[(Cyclopentylmethyl)(methyl)carbamoyl]-2-fluorophenyl}phenyl)-5-cyclopropyl-1H-pyrazole-4-carboxylic Acid] | 1 to 10 | – |
| 0.01 to 0.1 | – | 0.01 to 0.1 | CC(C)n1cc([C@@H]2C[C@H]2c2c(C(=O)O)cnn2-c2cccc(-c3cccc(O[C@@H](C)C4CCCCC4)c3)c2)nn1 (racemic) [Example 91, 1-(3′-((S)-1-Cyclohexylethoxy)-[1,1′-biphenyl]-3-yl)-5-(trans-2-(1-isopropyl-1H-1,2,3-triazol-4-yl)cyclopropyl)-1H-pyrazole-4-carboxylic acid] | 0.001 to 0.01 | – |
| > 10 | – | 0.1 to 1 | C[C@H](Oc1cccc(-c2cccc(-n3ncc(C(=O)OCOC(=O)C(C)(C)C)c3[C@@H]3C[C@H]3c3cn(C)nn3)c2)c1)C1CCCCC1 [Example 109, (Pivaloyloxy)methyl 1-(3′-((S)-1-cyclohexylethoxy)-[1,1′-biphenyl]-3-yl)-5-((1R,2R)-2-(1-methyl-1H-1,2,3-triazol-4-yl)cyclopropyl)-1H-pyrazole-4-carboxylate] | 0.001 to 0.01 | – |
| 1 to 10 | – | 1 to 10 | Cc1c(O[C@@H](C)C2CCCCC2)cccc1-c1cccc(-n2ncc(C(=O)O)c2[C@H]2C[C@@H]2c2cn(C)nn2)c1 (racemic) [Example 71, 1-(3′-((S)-1-Cyclohexylethoxy)-2′-methyl-[1,1′-biphenyl]-3-yl)-5-(trans-2-(1-methyl-1H-1,2,3-triazol-4-yl)cyclopropyl)-1H-pyrazole-4-carboxylic Acid] | 1 to 10 | – |
| 0.01 to 0.1 | – | < 0.01 | C[C@H](Oc1cccc(-c2cccc(-n3ncc(C(=O)O)c3[C@@H]3C[C@H]3c3cn(C)nn3)c2)c1)C1CCCCCC1 [Example 73, 1-(3′-((S)-1-Cycloheptylethoxy)-[1,1′-biphenyl]-3-yl)-5-((1R,2R)-2-(1-methyl-1H-1,2,3-triazol-4-yl)cyclopropyl)-1H-pyrazole-4-carboxylic Acid] | 0.001 to 0.01 | – |
| > 10 | – | > 100 | CC(Oc1ccc(-c2cccc(-n3ncc(C(=O)O)c3[C@H]3C[C@@H]3c3cn(C)nn3)c2)cc1)C1CCCCC1 (mixture of isomers) [Example 241, 1-(4′-(1-Cyclohexylethoxy)-[1,1′-biphenyl]-3-yl)-5-((1,2-trans)-2-(1-methyl-1H-1,2,3-triazol-4-yl)cyclopropyl)-1H-pyrazole-4-carboxylic Acid] | 1 to 10 | – |
| 0.01 to 0.1 | – | < 0.01 | CC[C@@H]1c2ccccc2OC(C)(C)CN1Cc1cccc(-c2cccc(-n3ncc(C(=O)O)c3[C@@H]3C[C@H]3c3cn(C)nn3)c2)c1 (single isomer, unassigned; isomer 2) [Example 125] | 0.001 to 0.01 | – |
| 0.01 to 0.1 | – | 0.01 to 0.1 | C[C@H](Oc1cccc(-c2cccc(-n3ncc(C(=O)O)c3[C@@H]3C[C@H]3c3cn(C)nn3)c2)c1F)C1CCCCC1 [Example 104, 1-(3′-((S)-1-cyclohexylethoxy)-2′-fluoro-[1,1′-biphenyl]-3-yl)-5-((1R,2R)-2-(1-methyl-1H-1,2,3-triazol-4-yl)cyclopropyl)-1H-pyrazole-4-carboxylic Acid] | 0.01 to 0.1 | – |

| Compound | IC50 [2] [µM] | IC50 [3] [µM] | IC50 [4] [µM] | EC50 [1] [µM] | EC50 ([1]; BEAS-2B, 48 h) [µM] |
| --- | --- | --- | --- | --- | --- |
| C[C@H](Oc1cccc(-c2cccc(-n3ncc(C(=O)O)c3[C@@H]3C[C@H]3c3cn(C)nn3)c2)c1)C1CCCCC1 [Example 68, 1-(3′-((S)-1-Cyclohexylethoxy)-[1,1′-biphenyl]-3-yl)-5-((1R,2R)-2-(1-methyl-1H-1,2,3-triazol-4-yl)cyclopropyl)-1H-pyrazole-4-carboxylate, Sodium salt] | 0.01 to 0.1 | – | < 0.01 | – | 0.001 to 0.01 |
